# From patent publication US5776886A, “Intravaginal preparation containing physiologically active peptide” (Teikoku Seiyaku Kabushiki Kaisha, priority 1993, dated 1998)
# How the values were obtained:
# Format in all cases: in vivo, Wistar rats
# [1] = system: calcium level in the serum; test: Experiment 7: effects of pH of the solution in the suppository on serum calcium reduction; conditions: citric acid + S-970, intravaginal 20 μg, rats
# Method: (§1) An intravaginal suppository was administered into the rat's vagina, and the blood was collected periodically (2, 4 and 6 hours after administration of the test preparation).
# (§2) The serum was separated, and the calcium level in the serum was determined by using a kit for determination of calcium (Calcium C Test Wako; manufactured by Wako Pure Chemical Industries, Ltd.) (n=3).
# (§3) In the same manner as in Experiment 1, each intravaginal suppository was administered to the rat's vagina, and the blood was collected periodically (2, 4 and 6 hours after administration of intravaginal suppository), and the calcium level in the serum thereof was determined (n=3).
# [2] = system: calcium level in the serum; test: Experiment 2: effects of various bases on serum calcium reduction; conditions: for Reduction rate (%) of calcium level in the serum: S-970 + citric acid, intravaginal suppository 20 μg, rats
# Method: as §1, §2
# In the same manner as in Experiment 1, each intravaginal suppository was administered to the rat's vagina, and the blood was collected periodically (2, 4 and 6 hours after administration of intravaginal suppository), and the calcium level in the serum thereof was determined (n=4).
# [3] = system: calcium level in the serum; test: Experiment 6: effects of the concentration of organic acid on serum calcium reduction; conditions: for Reduction rate (%) of calcium level in the serum: pH 3.5, + S-970, intravaginal suppository 20 μg, rats
# Method: as §1, §2, §3
substance,measurement,setting,value
Human calcitonin,Reduction rate (%) of calcium level in the serum,"[1]; pH of the solution in suppository 3.0, 4 hr",22.0%
same,Reduction rate (%) of calcium level in the serum,"[1]; pH of the solution in suppository 3.0, 6 hr",8.7%
same,Reduction rate (%) of calcium level in the serum,"[1]; pH of the solution in suppository 3.5, 2 hr",9.4%
same,Reduction rate (%) of calcium level in the serum,"[1]; pH of the solution in suppository 3.5, 4 hr",19.8%
same,Reduction rate (%) of calcium level in the serum,"[1]; pH of the solution in suppository 3.5, 6 hr",8.8%
same,Reduction rate (%) of calcium level in the serum,"[1]; pH of the solution in suppository 4.0, 2 hr",9.4%
same,Reduction rate (%) of calcium level in the serum,"[1]; pH of the solution in suppository 4.0, 4 hr",20.2%
same,Reduction rate (%) of calcium level in the serum,"[1]; pH of the solution in suppository 4.0, 6 hr",10.2%
same,Reduction rate (%) of calcium level in the serum,"[1]; pH of the solution in suppository 4.5, 2 hr",9.5%
same,Reduction rate (%) of calcium level in the serum,"[1]; pH of the solution in suppository 4.5, 4 hr",22.8%
same,Reduction rate (%) of calcium level in the serum,"[1]; pH of the solution in suppository 4.5, 6 hr",9.1%
same,Reduction rate (%) of calcium level in the serum,"[1]; pH of the solution in suppository 5.0, 2 hr",10.2%
same,Reduction rate (%) of calcium level in the serum,"[1]; pH of the solution in suppository 5.0, 4 hr",11.4%
same,Reduction rate (%) of calcium level in the serum,"[1]; pH of the solution in suppository 5.0, 6 hr",2.7%
same,Reduction rate (%) of calcium level in the serum,"[1]; pH of the solution in suppository 5.5, 2 hr",8.1%
same,Reduction rate (%) of calcium level in the serum,"[1]; pH of the solution in suppository 5.5, 4 hr",13.2%
same,Reduction rate (%) of calcium level in the serum,"[1]; pH of the solution in suppository 5.5, 6 hr",4.3%
same,Reduction rate (%) of calcium level in the serum,"[2]; base Cacao butter, 2 hr",12.5%
same,Reduction rate (%) of calcium level in the serum,"[2]; base Cacao butter, 4 hr",10.7%
same,Reduction rate (%) of calcium level in the serum,"[2]; base Cacao butter, 6 hr",8.3%
same,Reduction rate (%) of calcium level in the serum,"[2]; base Pharmasol B-105, 2 hr",13.4%
same,Reduction rate (%) of calcium level in the serum,"[2]; base Pharmasol B-105, 4 hr",14.8%
same,Reduction rate (%) of calcium level in the serum,"[2]; base Pharmasol B-105, 6 hr",10.6%
same,Reduction rate (%) of calcium level in the serum,"[2]; base Witepsol H-15, 2 hr",16.8%
same,Reduction rate (%) of calcium level in the serum,"[2]; base Witepsol H-15, 4 hr",17.7%
same,Reduction rate (%) of calcium level in the serum,"[2]; base Witepsol H-15, 6 hr",10.4%
same,Reduction rate (%) of calcium level in the serum,"[2]; base Witepsol S-55, 2 hr",16.5%
same,Reduction rate (%) of calcium level in the serum,"[2]; base Witepsol S-55, 4 hr",22.5%
same,Reduction rate (%) of calcium level in the serum,"[2]; base Witepsol S-55, 6 hr",13.0%
same,Reduction rate (%) of calcium level in the serum,"[2]; base Witepsol W-35, 2 hr",6.6%
same,Reduction rate (%) of calcium level in the serum,"[2]; base Witepsol W-35, 4 hr",20.4%
same,Reduction rate (%) of calcium level in the serum,"[2]; base Witepsol W-35, 6 hr",13.2%
same,promotion effect on absorption of calcitonin,"[2]; combination of sucrose fatty acid ester and citric acid, five bases",extremely excellent promotion effect on absorption of calcitonin regardless of any base to be used
same,calcium level in the blood,"[3]; citric acid 1, 2, 5 or 10 w/w % with sucrose fatty acid ester",reduced at any concentration of citric acid to be used
same,Reduction rate (%) of calcium level in the serum,"[3]; organic acid (citric acid) 1 w/w %, 2 hr",14.6%
same,Reduction rate (%) of calcium level in the serum,"[3]; organic acid (citric acid) 1 w/w %, 4 hr",15.7%
same,Reduction rate (%) of calcium level in the serum,"[3]; organic acid (citric acid) 1 w/w %, 6 hr",9.2%
same,Reduction rate (%) of calcium level in the serum,"[3]; organic acid (citric acid) 2 w/w %, 2 hr",15.3%
same,Reduction rate (%) of calcium level in the serum,"[3]; organic acid (citric acid) 2 w/w %, 4 hr",18.7%
same,Reduction rate (%) of calcium level in the serum,"[3]; organic acid (citric acid) 2 w/w %, 6 hr",8.2%
same,Reduction rate (%) of calcium level in the serum,"[3]; organic acid (citric acid) 5 w/w %, 2 hr",17.9%
same,Reduction rate (%) of calcium level in the serum,"[3]; organic acid (citric acid) 5 w/w %, 4 hr",19.4%
same,Reduction rate (%) of calcium level in the serum,"[3]; organic acid (citric acid) 5 w/w %, 6 hr",7.5%
same,Reduction rate (%) of calcium level in the serum,"[3]; organic acid (citric acid) 10 w/w %, 2 hr",18.4%
same,Reduction rate (%) of calcium level in the serum,"[3]; organic acid (citric acid) 10 w/w %, 4 hr",19.0%
same,Reduction rate (%) of calcium level in the serum,"[3]; organic acid (citric acid) 10 w/w %, 6 hr",5.0%
